The text below walks through data of ChEMBL document CHEMBL1697821, “Development of a phospholipidosis database and predictive quantitative structure-activity relationship (QSAR) models” (Toxicol Mech Methods, 2008).

This data set has as its system Phospholipidosis. In words: Literature-mined public compounds from Kruhlak et al phospholipidosis modelling dataset.
Take `CCOC(=O)[C@H](CCc1ccccc1)N[C@@H](C)C(=O)N1Cc2cc(OC)c(OC)cc2C[C@H]1C(=O)O` [MOEXIPRIL]: the Phospholipidosis entry was “Negative: based on the absence of positive reported data from WMDD”.
The same measure for `CCc1c(C)[nH]c2c1C(=O)C(CN1CCOCC1)CC2` (stereo not given) [MOLINDONE]: “Negative: based on the absence of positive reported data from WMDD”; for `CCOC(=O)Nc1ccc2c(c1)N(C(=O)CCN1CCOCC1)c1ccccc1S2` [MORICIZINE]: “Negative: based on the absence of positive reported data from WMDD”; for `CC(=O)Oc1cc(C(C)C)c(OCCN(C)C)cc1C` [MOXISYLYTE]: “Negative: based on the absence of positive reported data from WMDD”.
The same measure for `CCn1cc(C(=O)O)c(=O)c2ccc(C)nc21` [NALIDIXIC ACID]: “Negative: based on the absence of positive reported data from WMDD”; for `C[C@]12CC[C@H]3[C@@H](CCC4=CC(=O)CC[C@@H]43)[C@@H]1CC[C@@H]2O` [NANDROLONE]: “Negative: based on the absence of positive reported data from WMDD”.
The same measure for `C[C@@H]1C/C=C/C=C/C=C/C=C/[C@H](O[C@@H]2O[C@H](C)[C@@H](O)[C@H](N)[C@@H]2O)C[C@@H]2O[C@](O)(C[C@@H](O)C[C@H]3O[C@@H]3/C=C/C(=O)O1)C[C@H](O)[C@H]2C(=O)O` [NATAMYCIN]: “Negative: based on the absence of positive reported data from WMDD”.
With `CCc1nn(CCCN2CCN(c3cccc(Cl)c3)CC2)c(=O)n1CCOc1ccccc1` [NEFAZODONE], the Phospholipidosis result is recorded as “Negative: based on the absence of positive reported data from WMDD”.
With `CCN[C@@H]1C[C@H](N)[C@@H](O[C@H]2OC(CN)=CC[C@H]2N)[C@H](O)[C@H]1O[C@H]1OC[C@](C)(O)[C@H](NC)[C@H]1O` [NETILMICIN], the Phospholipidosis entry is recorded as “Positive: strong inducer confirmed by electron microscopy”.
Then `O=C(O)c1cccnc1` [NIACIN], with “Negative: based on the absence of positive reported data from WMDD”; and `O=C(OC[C@H]1O[C@](O)(COC(=O)c2cccnc2)[C@@H](OC(=O)c2cccnc2)[C@@H]1OC(=O)c1cccnc1)c1cccnc1` [NICOFURANOSE], with “Negative: based on the absence of positive reported data from WMDD”.
Then `CN1C(=O)CN=C(c2ccccc2)c2cc([N+](=O)[O-])ccc21` [NIMETAZEPAM], with “Negative: based on the absence of positive reported data from WMDD”; and `COCCOC(=O)C1=C(C)NC(C)=C(C(=O)OC(C)C)C1c1cccc([N+](=O)[O-])c1` (stereo not given) [NIMODIPINE], with “Negative: based on the absence of positive reported data from WMDD”.
The same measure for `O=C1CN=C(c2ccccc2)c2cc([N+](=O)[O-])ccc2N1` [NITRAZEPAM]: “Negative: based on the absence of positive reported data from WMDD”; for `CCOC(=O)C1=C(C)NC(C)=C(C(=O)OC)C1c1cccc([N+](=O)[O-])c1` (stereo not given) [NITRENDIPINE]: “Negative: based on the absence of positive reported data from WMDD”; for `O=C1CN(/N=C/c2ccc([N+](=O)[O-])o2)C(=O)N1` [NITROFURANTOIN]: “Negative: based on the absence of positive reported data from WMDD”.
Regarding `CN1Cc2c(N)cccc2C(c2ccccc2)C1` (stereo not given) [NOMIFENSINE], the Phospholipidosis result is “Negative: based on the absence of positive reported data from WMDD”.
The same measure for `Clc1ccc(C(c2ccccc2)N2CCNCC2)cc1` (stereo not given) [NORCHLORCYCLIZINE]: “Positive: strong inducer confirmed by electron microscopy”; for `CC[C@]1(O)CC[C@H]2[C@@H]3CCC4=CC(=O)CC[C@@H]4[C@H]3CC[C@@]21C` [NORETHANDROLONE]: “Negative: based on the absence of positive reported data from WMDD”.
The same measure for `C#C[C@]1(OC(C)=O)CC[C@H]2[C@@H]3CCC4=CC(=O)CC[C@@H]4[C@H]3CC[C@@]21C` [NORETHINDRONE ACETATE]: “Negative: based on the absence of positive reported data from WMDD”; for `CNCCC=C1c2ccccc2CCc2ccccc21` [NORTRIPTYLINE]: “Positive: strong inducer confirmed by electron microscopy”; for `CO[C@@H]1[C@@H](OC(N)=O)[C@@H](O)[C@H](Oc2ccc3c(O)c(NC(=O)c4ccc(O)c(CC=C(C)C)c4)c(=O)oc3c2C)OC1(C)C` [NOVOBIOCIN]: “Negative: based on the absence of positive reported data from WMDD”.
On to `CN(C)CCON=C1c2ccccc2CCc2ccccc21` [NOXIPTILINE], for which the Phospholipidosis result is “Positive: weak inducer based on presence of foamy macrophages and cytoplasmic vacuolations”.
With `CC1COc2c(N3CCN(C)CC3)c(F)cc3c(=O)c(C(=O)O)cn1c23` (stereo not given) [OFLOXACIN], the Phospholipidosis entry is recorded as “Negative: confirmed by electron microscopy”.
Then `Cc1cc2c(s1)Nc1ccccc1N=C2N1CCN(C)CC1` [OLANZAPINE], with “Negative: based on the absence of positive reported data from WMDD”.
Then `O=C(O)c1cc(/N=N/c2ccc(O)c(C(=O)O)c2)ccc1O` [OLSALAZINE], with “Negative: based on the absence of positive reported data from WMDD”.
The same measure for `COc1ccc2[nH]c([S+]([O-])Cc3ncc(C)c(OC)c3C)nc2c1` (stereo not given) [OMEPRAZOLE]: “Negative: based on the absence of positive reported data from WMDD”; for `OCCN1CCN(CCCN2c3ccccc3C=Cc3ccccc32)CC1` [OPIPRAMOL]: “Negative: based on the absence of positive reported data from WMDD”.
`CC(C)NCC1CCc2cc(CO)c([N+](=O)[O-])cc2N1` (stereo not given) [OXAMNIQUINE]: the Phospholipidosis result is reported as “Negative: based on the absence of positive reported data from WMDD”.
On to `C[C@]12COC(=O)C[C@@H]1CC[C@@H]1[C@@H]2CC[C@@]2(C)[C@H]1CC[C@]2(C)O` [OXANDROLONE], for which the Phospholipidosis result is recorded as “Negative: based on the absence of positive reported data from WMDD”.
The same measure for `CC[N+]1(C)[C@@H]2CC(OC(=O)[C@H](CO)c3ccccc3)C[C@H]1[C@@H]1O[C@@H]12.[Br-]` (stereo not given in full) [OXITROPIUM BROMIDE]: “Negative: based on the absence of positive reported data from WMDD”; for `CCN(CC)CCc1nc(-c2ccccc2)no1` [OXOLAMINE]: “Negative: based on the absence of positive reported data from WMDD”; for `CCn1cc(C(=O)O)c(=O)c2cc3c(cc21)OCO3` [OXOLINIC ACID]: “Negative: based on the absence of positive reported data from WMDD”.
Then `CN1CC[C@]23c4c5ccc(O)c4O[C@H]2C(=O)CC[C@@]3(O)[C@H]1C5` [OXYMORPHONE], with “Negative: based on the absence of positive reported data from WMDD”; and `CC(C)(CO)[C@@H](O)C(=O)NCCC(=O)O` [PANTOTHENIC ACID], with “Negative: based on the absence of positive reported data from WMDD”; and `CCC1(C)OC(=O)N(C)C1=O` (stereo not given) [PARAMETHADIONE], with “Negative: based on the absence of positive reported data from WMDD”.
In the case of `C#CCN(C)Cc1ccccc1` [PARGYLINE], the Phospholipidosis entry is “Negative: based on the absence of positive reported data from WMDD”.
For `CCC(=O)c1ccc(O)cc1` [PAROXYPROPIONE], the Phospholipidosis result is “Negative: based on the absence of positive reported data from WMDD”.
Then `CC1(C)S[C@@H]2[C@H](NC(=O)COc3ccccc3)C(=O)N2[C@H]1C(=O)O` [PENICILLIN V], with “Negative: based on the absence of positive reported data from WMDD”; and `CCCC(C)C1(CC)C(=O)NC(=O)NC1=O` (stereo not given) [PENTOBARBITAL], with “Negative: based on the absence of positive reported data from WMDD”; and `CC(=O)CCCCn1c(=O)c2c(ncn2C)n(C)c1=O` [PENTOXIFYLLINE], with “Negative: based on the absence of positive reported data from WMDD”.
Then `CCCN1C[C@H](CSC)C[C@@H]2c3cccc4[nH]cc(c34)C[C@H]21` [PERGOLIDE], with “Negative: based on the absence of positive reported data from WMDD”.
The same measure for `C1CCC(C(CC2CCCCN2)C2CCCCC2)CC1` (stereo not given) [PERHEXILINE]: “Positive: strong inducer confirmed by electron microscopy”; for `CCC[C@H](N[C@@H](C)C(=O)N1[C@H](C(=O)O)C[C@@H]2CCCC[C@@H]21)C(=O)OCC` [PERINDOPRIL]: “Negative: based on the absence of positive reported data from WMDD”; for `OCCN1CCN(CCCN2c3ccccc3Sc3ccc(Cl)cc32)CC1` [PERPHENAZINE]: “Negative: based on the absence of positive reported data from WMDD”.
Take `NC(=O)NC(=O)Cc1ccccc1` [PHENACEMIDE]: the Phospholipidosis entry is “Negative: based on the absence of positive reported data from WMDD”.
As for `CCOc1ccc(NC(C)=O)cc1` [PHENACETIN], the Phospholipidosis result is on record as “Positive: strong inducer confirmed by electron microscopy”.
The same measure for `Nc1ccc(/N=N/c2ccccc2)c(N)n1` [PHENAZOPYRIDINE]: “Negative: based on the absence of positive reported data from WMDD”; for `C[C@H]1[C@H](c2ccccc2)OCCN1C` [PHENDIMETRAZINE]: “Negative: based on the absence of positive reported data from WMDD”; for `CC(Oc1ccccc1)C(=O)N[C@@H]1C(=O)N2[C@@H]1SC(C)(C)[C@@H]2C(=O)O` (stereo not given in full) [PHENETHICILLIN]: “Negative: based on the absence of positive reported data from WMDD”.
Then `CN1CCC2=C(C1)C(c1ccccc1)c1ccccc12` (stereo not given) [PHENINDAMINE], with “Negative: based on the absence of positive reported data from WMDD”.
With `O=C1c2ccccc2C(=O)C1c1ccccc1` [PHENINDIONE], the Phospholipidosis result is “Negative: based on the absence of positive reported data from WMDD”.
As for `CN(C)CCC(c1ccccc1)c1ccccn1` (stereo not given) [PHENIRAMINE], the Phospholipidosis result is recorded as “Negative: based on the absence of positive reported data from WMDD”.
The same measure for `CCC1(c2ccccc2)C(=O)NC(=O)NC1=O` [PHENOBARBITAL]: “Negative: confirmed by electron microscopy”; for `O=C1OC(c2ccc(O)cc2)(c2ccc(O)cc2)c2ccccc21` [PHENOLPHTHALEIN]: “Negative: based on the absence of positive reported data from WMDD”.
